Test results published in US8058228B2, “Leptin peptide antagonists” (Boston Biomedical Research Institute, priority 2004, dated 2011).

Target: T1, OB-R (Homo sapiens, UniProt P48357)
T1 construct: After confirming via Western that the primary EEC and ESC and endometrial cell lines utilized herein had OB-R; endogenous in cells; host or cells: primary human EEC and ESC; Ishikawa (ECACC 9832301) and HES cell lines
T1 sequence (P48357 22-1165): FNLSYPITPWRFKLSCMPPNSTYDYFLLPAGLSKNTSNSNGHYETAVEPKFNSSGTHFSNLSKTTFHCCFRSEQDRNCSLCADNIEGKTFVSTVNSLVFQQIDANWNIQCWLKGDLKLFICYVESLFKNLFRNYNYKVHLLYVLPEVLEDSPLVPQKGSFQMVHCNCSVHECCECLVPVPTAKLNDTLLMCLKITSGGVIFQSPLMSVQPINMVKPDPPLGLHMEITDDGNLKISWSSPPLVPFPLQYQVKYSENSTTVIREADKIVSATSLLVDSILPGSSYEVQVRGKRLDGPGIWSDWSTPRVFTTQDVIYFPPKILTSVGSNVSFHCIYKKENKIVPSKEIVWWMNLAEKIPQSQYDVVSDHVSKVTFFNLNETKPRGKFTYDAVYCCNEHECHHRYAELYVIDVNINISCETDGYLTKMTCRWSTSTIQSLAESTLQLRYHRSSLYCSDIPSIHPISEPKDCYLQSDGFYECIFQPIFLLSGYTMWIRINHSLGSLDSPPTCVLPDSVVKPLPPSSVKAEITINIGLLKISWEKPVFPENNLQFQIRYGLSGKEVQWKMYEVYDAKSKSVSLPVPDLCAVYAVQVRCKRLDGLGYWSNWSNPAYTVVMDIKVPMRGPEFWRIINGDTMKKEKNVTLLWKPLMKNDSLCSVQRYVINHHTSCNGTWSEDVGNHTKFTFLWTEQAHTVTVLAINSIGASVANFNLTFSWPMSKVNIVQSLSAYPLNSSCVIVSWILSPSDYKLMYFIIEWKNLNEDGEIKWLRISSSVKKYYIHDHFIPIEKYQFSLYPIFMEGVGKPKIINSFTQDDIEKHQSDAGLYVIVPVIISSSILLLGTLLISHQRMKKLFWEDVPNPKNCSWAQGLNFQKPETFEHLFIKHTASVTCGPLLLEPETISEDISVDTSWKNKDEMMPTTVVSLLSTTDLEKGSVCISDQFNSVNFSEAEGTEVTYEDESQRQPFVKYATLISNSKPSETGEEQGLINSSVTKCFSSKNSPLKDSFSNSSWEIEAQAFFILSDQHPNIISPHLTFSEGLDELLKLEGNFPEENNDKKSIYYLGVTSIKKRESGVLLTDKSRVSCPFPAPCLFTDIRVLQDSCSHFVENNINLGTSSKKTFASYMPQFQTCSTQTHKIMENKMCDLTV
Experiment: IL-1R tl levels in human endometrial epithelial cells (Western blot)
Assay type: cell-based
Details: EEC cultures
Protocol: Primary human endometrial cells (ESC and EEC) were cultured for 5-9 days in DMEM-F12 medium containing 5% fetal bovine serum (FBS), 5 μg/ml insulin, 1% amphopthericin B, 100 μg/ml streptomycin and 100 U/ml penicillin until they were 80% confluent. Two types of endometrial epithelial cell lines, HES (originally derived from a benign proliferative endometrium) and Ishikawa (human endometrial epithelial adenocarcinoma, ECACC 9832301, Wiltshire, England) were cultured under the same conditions described above. The cells were washed twice with 100 mM phosphate saline buffer (PBS), pH 7.2 and cultured for additional 2 days in the same medium but without FBS (basal medium). Cells were washed as described before and cultured in basal medium containing leptin (0, 3, 10 or 62 nM) or IL-1β (0.6, 3 and 10 nM). […]
Endometrial cells were washed with ice-cold PBS and lysed by homogenization on ice with lysis buffer A [[…] Tris, pH 7.4, containing 137 nM NaCl, 2 mM EDTA, 10% glycerol, 50 mM β-glycerophosphate, 1% Nonidet P-40 and a mixture of proteases and phosphatase inhibitors composed of 100 μM antipain, 0.1 mg/ml trypsin inhibitor, protease inhibitor cocktail 1:50 (Sigma), 50 nM NaF, 2 mM phenyl-methylsulfonyl fluoride, and 2 mM sodium orthovanadate]. […] Protein concentrations were determined using the Bradford protein assay (BioRad Laboratories Inc., Hercules, Calif.). […]

effect on leptin-induced IL-1R tl levels	IL-1R tl levels after leptin	Substance
inhibited the leptin-induced effects		SRNVIQISNDLENLRDLLHVLAFSKS [LPA-2, 26 amino acid peptide, residues 70-95 of helix III of the human leptin molecule; leptin peptide antagonist]
	increase the levels of IL-1R tl	leptin: human recombinant leptin (R&D Systems), OB-R ligand used as stimulus
